Results reported in publication PMC3548273, “Rodent Thyroid, Liver, and Fetal Testis Toxicity of the Monoester Metabolite of Bis-(2-ethylhexyl) Tetrabromophthalate (TBPH), a Novel Brominated Flame Retardant Present in Indoor Dust” (Environmental Health Perspectives, 2012).

Key:
Assay type in all cases: cell-based
PPARα [1] = target: T1, PPARα (Mus musculus, UniProt P23204); experiment: AOX target gene expression (qPCR) in FAO-PPARα cells at […]; conditions: fao-pparalpha cells, 0.1 µM
T1 construct: gene Ppara; FAO cells stably transfected with mouse PPARα
T1 sequence (P23204 1-468): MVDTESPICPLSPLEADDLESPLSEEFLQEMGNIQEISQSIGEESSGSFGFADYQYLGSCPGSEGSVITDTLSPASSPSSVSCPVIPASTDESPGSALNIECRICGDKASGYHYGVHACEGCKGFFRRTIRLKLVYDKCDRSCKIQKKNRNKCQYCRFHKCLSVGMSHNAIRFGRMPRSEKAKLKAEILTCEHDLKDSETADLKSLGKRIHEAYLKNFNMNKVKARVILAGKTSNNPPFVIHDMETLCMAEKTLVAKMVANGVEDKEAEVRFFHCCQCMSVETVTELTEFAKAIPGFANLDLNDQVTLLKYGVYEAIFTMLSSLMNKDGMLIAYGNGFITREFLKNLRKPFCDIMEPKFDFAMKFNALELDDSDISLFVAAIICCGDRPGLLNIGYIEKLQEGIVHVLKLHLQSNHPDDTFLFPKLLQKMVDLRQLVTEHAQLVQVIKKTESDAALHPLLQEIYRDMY

PPARα [2] = target: T1, PPARα; experiment: AOX target gene expression (qPCR) in FAO-PPARα cells
PPARγ [3] = target: T2, PPARγ (Mus musculus, UniProt P37238); experiment: FABP4 target gene expression and lipid accumulation in NIH 3T3 L1 cells, with PPARγ shRNA knockdown
T2 construct: gene Pparg
T2 sequence (P37238 1-505): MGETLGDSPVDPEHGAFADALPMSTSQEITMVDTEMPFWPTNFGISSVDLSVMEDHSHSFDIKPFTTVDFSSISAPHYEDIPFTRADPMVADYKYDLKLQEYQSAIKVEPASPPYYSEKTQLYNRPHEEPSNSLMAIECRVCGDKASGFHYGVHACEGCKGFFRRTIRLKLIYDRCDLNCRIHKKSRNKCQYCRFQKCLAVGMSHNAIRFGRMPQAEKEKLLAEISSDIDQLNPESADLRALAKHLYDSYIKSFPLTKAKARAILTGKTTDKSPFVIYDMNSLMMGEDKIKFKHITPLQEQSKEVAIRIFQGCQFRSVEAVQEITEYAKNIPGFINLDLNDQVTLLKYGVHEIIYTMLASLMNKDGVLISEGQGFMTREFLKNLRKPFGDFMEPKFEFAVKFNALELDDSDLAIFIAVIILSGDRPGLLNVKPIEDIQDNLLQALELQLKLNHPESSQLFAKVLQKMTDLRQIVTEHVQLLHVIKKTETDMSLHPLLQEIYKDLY

PPARγ [4] = target: T2, PPARγ; experiment: FABP4 target gene expression (qPCR) in NIH 3T3 L1 cells at […]; conditions: NIH3T3, read-out: FABP4 target gene expression (qPCR) in NIH 3T3 L1 cells at 100 nM
PPARα [5] = target: T1, PPARα; experiment: AOX target gene expression (qPCR) in FAO-PPARα cells at […]; conditions: read-out: AOX target gene expression (qPCR) in FAO-PPARα cells at 100 μM
PPARγ [6] = target: T2, PPARγ; experiment: FABP4 target gene expression (qPCR) in NIH 3T3 L1 cells at […]; conditions: NIH3T3, read-out: FABP4 target gene expression (qPCR) in NIH 3T3 L1 cells at 100 μM

CC(C)(Sc1ccc(CCN(CCCCC2CCCCC2)C(=O)NC2CCCCC2)cc1)C(=O)O [GW7647, 2-(4-(2-(1-(cyclohexanebutyl)-3-cyclohexylureido)ethyl)phenylthio)-2-methylpropionic acid]
AOX target gene expression (qPCR) in FAO-PPARα cells at 100 nM (PPARα [1]): 4.9 ± 0.5 fold increase

CCCCC(CC)COC(=O)c1c(Br)c(Br)c(Br)c(Br)c1C(=O)O (stereo not drawn) [TBMEHP]
AOX target gene expression (qPCR) in FAO-PPARα cells (PPARα [2]): TBMEHP, but not TBPH, significantly up-regulated the expression of both FABP4 and AOX mRNA | FABP4 target gene expression and lipid accumulation in NIH 3T3 L1 cells, with PP (PPARγ [3]): TBMEHP-induced expression of the PPARγ target gene, FABP4, was significantly impaired in PPARγ-shRNA transduced cells

CN(CCOc1ccc(CC2SC(=O)NC2=O)cc1)c1ccccn1 (stereo not drawn) [rosiglitazone]
fold induction at 0.1 µM (PPARγ [4]): 6 ± 1.4

CCCCC(CC)COC(=O)c1ccccc1C(=O)O (stereo not drawn) [MEHP]
fold induction at 100 µM (PPARα [5]): 5.4 ± 0.6 | fold induction at 100 µM (PPARγ [6]): 11.5 ± 2.7
